The values below come from patent US20100249193A1, “Nematicidal, Insecticidal and Acaricidal Active Ingredient Combinations Comprising Pyridyl-ethylbenzamides and Insecticides” (Bayer CropScience AG, priority 2009, published 2010).

For the assay, the system named is Meloidogyne incognita. Briefly: Meloidogyne incognita test (MELGIN), gall formation on salad seedlings in sand. It is filed as in vivo. The note with it: 0% = galls equal to untreated control. The method, then: Meloidogyne incognita—Test (MELGIN)
To produce a suitable preparation of active compound, 1 part by weight of active compound is mixed with the stated amount of solvent, and the concentrate is diluted with emulsifier-containing water to the desired concentration.
Vessels are filled with sand, a solution of the active ingredient, a suspension containing eggs and larvae of Meloidogyne incognita and salad seeds. The salad seeds germinate and the seedlings grow. Galls develop on the roots.
After the specified period the nematicidal activity is determined on the basis of the percentage of gall formation. 100% means that no galls were found; 0% means that the number of galls found on the roots of the treated plants was equal to that in untreated control plants.

As for `CNC(=O)c1cc(C#N)cc(C)c1NC(=O)c1cc(Br)nn1-c1ncccc1Cl` [Cyazypyr, cyazypyr], under “4 ppm”, the “Gall-formation efficacy in % after 21 d (100% = no galls)” value worked out at 6%.
In the case of `O=C(NCCc1ncc(C(F)(F)F)cc1Cl)c1ccccc1C(F)(F)F` [Fluopyram, N-{2-[3-chloro-5-(trifluoromethyl)-2-pyridinyl]ethyl}-2-trifluoromethylbenzamide], under “0.125 ppm”, the “Gall-formation efficacy in % after 21 d (100% = no galls)” value is given as 56%.
